≈ marks a conversion by molar mass, not a printed value.
Experiments:
[1] = Equilibrium solubility, saturation shake-flask method; format: physicochemical; details: 37 °C, thermodynamic from solid, mean ± SD (n=3)
Method: The solubility of diclofenac free acid, sodium and potassium was comparatively evaluated in media reflecting the oral way of administration, as e.g. with different pH values. The equilibrium solubility was determined using the saturation shake-flask method. Briefly, an excess amount of drug was added into the different media maintained at 37±0.5° C. and shaken for at least 24 hours. After equilibrium was reached, the excess of solid was removed and the diclofenac concentration in the supernatant solutions was determined by HPLC.

[2] = Agglomerate formation at pH 1.1 (such as gastric fluid); format: physicochemical

| solubility ([1]; 0.1N HCl, pH 1.1, simulated gastric fluid, 0.1N HCl pH 1.1) [µg/mL] | solubility ([1]; simulated gastric fluid, pH 1.6, simulated gastric fluid, Simulated gastric fluid pH 1.6) [µg/mL] | formation of agglomerates [2] | SMILES |
| --- | --- | --- | --- |
| 2.49 ± 0.15 (≈ 8.41 µM) | 1.72 ± 0.01 (≈ 5.81 µM) | not diclofenac acid form agglomerates | O=C(O)Cc1ccccc1Nc1c(Cl)cccc1Cl [Diclofenac acid, 2-[(2,6-Dichlorophenyl)amino]benzeneacetic acid] |
|  |  | form agglomerates | O=C(O)Cc1ccccc1Nc1c(Cl)cccc1Cl [Diclofenac potassium] |
|  |  | form agglomerates | O=C(O)Cc1ccccc1Nc1c(Cl)cccc1Cl [Diclofenac sodium] |
